pIC50: −log10 of the molar value. Like-named read-outs stand apart in the source and are kept apart here.
How the values were obtained:
[1] = target: T1, αIIbβ3 integrin (Homo sapiens, UniProt P05106+P08514); assay: Assay for the inhibition of αIIbβ3 integrin binding (fibrinogen as ligand, integrin captured from platelet lysate); settings: inhibition of specific binding of biotinylated fibrinogen to αIIbβ3 integrin from human platelet lysate
T1 construct: from tissue; host or cells: human platelets (Triton X-100 lysate)
T1 sequence (P08514 32-887 limits assumed): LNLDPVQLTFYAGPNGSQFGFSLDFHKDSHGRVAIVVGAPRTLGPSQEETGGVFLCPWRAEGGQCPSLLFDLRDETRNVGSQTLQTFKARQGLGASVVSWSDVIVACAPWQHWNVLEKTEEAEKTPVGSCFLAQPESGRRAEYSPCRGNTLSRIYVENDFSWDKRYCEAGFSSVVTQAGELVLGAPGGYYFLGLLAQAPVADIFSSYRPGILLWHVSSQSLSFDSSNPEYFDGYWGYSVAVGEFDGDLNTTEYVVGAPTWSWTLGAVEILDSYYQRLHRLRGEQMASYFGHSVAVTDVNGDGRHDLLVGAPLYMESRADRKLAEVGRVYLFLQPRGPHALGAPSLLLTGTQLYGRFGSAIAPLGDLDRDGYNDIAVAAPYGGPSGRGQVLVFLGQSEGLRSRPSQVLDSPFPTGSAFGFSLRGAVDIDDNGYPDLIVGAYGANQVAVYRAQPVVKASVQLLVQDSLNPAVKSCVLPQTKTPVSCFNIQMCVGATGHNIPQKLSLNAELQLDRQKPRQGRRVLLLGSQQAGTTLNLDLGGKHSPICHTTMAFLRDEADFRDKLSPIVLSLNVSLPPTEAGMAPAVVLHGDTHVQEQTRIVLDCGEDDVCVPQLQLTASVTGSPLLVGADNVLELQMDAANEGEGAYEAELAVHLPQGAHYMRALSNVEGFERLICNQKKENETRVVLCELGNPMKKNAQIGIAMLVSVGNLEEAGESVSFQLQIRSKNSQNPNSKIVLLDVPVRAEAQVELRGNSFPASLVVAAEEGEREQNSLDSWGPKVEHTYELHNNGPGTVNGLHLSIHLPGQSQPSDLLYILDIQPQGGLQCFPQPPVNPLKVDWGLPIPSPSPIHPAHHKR
T1 sequence (P08514 891-1039 partner limits assumed): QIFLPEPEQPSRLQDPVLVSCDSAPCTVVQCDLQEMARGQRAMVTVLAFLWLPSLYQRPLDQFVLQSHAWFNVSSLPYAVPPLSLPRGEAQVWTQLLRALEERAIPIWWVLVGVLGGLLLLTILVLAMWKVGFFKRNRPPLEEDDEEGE
T1 sequence (P05106 27-788): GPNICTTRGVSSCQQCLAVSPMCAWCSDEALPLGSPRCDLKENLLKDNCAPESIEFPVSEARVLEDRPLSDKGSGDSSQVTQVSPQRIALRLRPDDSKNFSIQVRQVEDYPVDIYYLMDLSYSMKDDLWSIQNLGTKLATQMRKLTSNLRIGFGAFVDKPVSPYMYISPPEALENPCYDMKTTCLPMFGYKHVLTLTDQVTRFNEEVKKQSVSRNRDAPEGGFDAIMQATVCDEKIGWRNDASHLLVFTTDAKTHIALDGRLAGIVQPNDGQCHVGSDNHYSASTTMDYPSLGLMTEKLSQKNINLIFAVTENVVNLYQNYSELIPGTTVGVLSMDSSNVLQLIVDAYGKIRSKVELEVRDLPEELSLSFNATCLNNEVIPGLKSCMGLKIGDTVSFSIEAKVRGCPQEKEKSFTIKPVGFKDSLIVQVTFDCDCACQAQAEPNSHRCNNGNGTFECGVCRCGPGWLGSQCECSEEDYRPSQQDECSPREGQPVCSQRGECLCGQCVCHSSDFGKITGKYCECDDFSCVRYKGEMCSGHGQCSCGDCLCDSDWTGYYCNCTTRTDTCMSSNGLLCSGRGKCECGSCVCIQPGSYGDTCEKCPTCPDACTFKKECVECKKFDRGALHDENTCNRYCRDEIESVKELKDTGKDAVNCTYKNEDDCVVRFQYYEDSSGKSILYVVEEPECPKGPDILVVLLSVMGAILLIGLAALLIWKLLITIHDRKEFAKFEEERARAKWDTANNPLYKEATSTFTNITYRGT

[2] = target: T2, αvβ3 integrin (Homo sapiens, UniProt P05106+P06756); assay: Assay for the inhibition of αvβ3 integrin binding (vitronectin as ligand); set-up: purchased Chemicon International, Inc., USA; settings: inhibition of specific binding of biotinylated human vitronectin to immobilized αvβ3 integrin
T2 sequence (P06756 31-889 limits assumed): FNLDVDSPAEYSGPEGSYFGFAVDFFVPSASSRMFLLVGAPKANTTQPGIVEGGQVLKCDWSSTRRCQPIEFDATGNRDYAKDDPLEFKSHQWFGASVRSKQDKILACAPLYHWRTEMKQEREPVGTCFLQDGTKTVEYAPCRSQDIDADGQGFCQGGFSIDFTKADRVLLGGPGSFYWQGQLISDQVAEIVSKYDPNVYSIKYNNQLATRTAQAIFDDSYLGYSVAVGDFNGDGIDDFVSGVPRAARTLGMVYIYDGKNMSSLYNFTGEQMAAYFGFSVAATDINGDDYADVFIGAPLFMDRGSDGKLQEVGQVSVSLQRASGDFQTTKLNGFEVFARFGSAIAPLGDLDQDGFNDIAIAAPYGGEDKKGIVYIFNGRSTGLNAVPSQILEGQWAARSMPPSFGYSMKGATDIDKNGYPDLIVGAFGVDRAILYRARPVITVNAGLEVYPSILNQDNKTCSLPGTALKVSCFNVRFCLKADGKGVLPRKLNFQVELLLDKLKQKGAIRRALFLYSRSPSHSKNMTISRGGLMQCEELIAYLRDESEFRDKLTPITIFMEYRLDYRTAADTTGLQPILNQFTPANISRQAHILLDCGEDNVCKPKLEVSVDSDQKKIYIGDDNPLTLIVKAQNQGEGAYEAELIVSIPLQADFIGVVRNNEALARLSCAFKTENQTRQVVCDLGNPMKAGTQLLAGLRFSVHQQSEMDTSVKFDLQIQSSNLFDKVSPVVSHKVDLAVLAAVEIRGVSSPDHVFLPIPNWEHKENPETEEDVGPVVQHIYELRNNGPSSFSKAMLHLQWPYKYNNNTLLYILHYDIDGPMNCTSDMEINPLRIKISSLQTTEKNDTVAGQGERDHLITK
T2 sequence (P06756 891-1048 partner limits assumed): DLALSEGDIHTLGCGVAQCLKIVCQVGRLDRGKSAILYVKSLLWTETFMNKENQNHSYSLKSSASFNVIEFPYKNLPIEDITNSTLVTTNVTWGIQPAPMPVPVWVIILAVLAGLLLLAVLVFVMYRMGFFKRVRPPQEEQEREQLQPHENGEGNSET
T2 sequence (P05106 27-788): as the sequence (P05106 27-788) above

[3] = target: GPIIb/IIIa (Homo sapiens, UniProt P05106+P08514); settings: read-out: GPIIb/IIIa inhibitory activity IC50 value, cited from earlier work
Chain of GPIIb/IIIa (P08514 32-887 limits assumed): as the sequence (P08514 32-887 limits assumed) above
Chain of GPIIb/IIIa (P08514 891-1039 partner limits assumed): as the sequence (P08514 891-1039 partner limits assumed) above
Chain of GPIIb/IIIa (P05106 27-788): as the sequence (P05106 27-788) above

[4] = target: T2, αvβ3 integrin; settings: reported in WO 99/52872; read-out: αvβ3 integrin inhibitory activity IC50 value; cited from earlier work

IC50 [1] | IC50 [2] | SMILES | pIC50 ([3]; reported in WO 99/38849) | pIC50 [4] | pIC50 ([3]; reported in WO 99/52872)
77 nM | 0.1 nM | CC(C)COC(=O)N[C@@H](CNC(=O)C1CCN(c2cc(NC3=NCCCN3)ccn2)CC1)C(=O)O [Ex. 161] | – | – | –
> 1000 nM | 0.21 nM | CN(C[C@H](NC(=O)OCc1ccccc1)C(=O)O)C(=O)C1CCN(c2cccc(NC3=NCCCN3)c2)CC1 [Ex. 162, (2S)-2-benzyloxycarbonylamino-3-[[1-[3-(1,4,5,6-tetrahydropyrimidin-2-yl)aminophenyl]piperidin-4-yl]-N-methylcarbonylamino]propanoic acid] | – | – | –
– | – | O=C(NC[C@H](NS(=O)(=O)c1ccccc1)C(=O)O)c1ccc(N2CCN(C3=NCCCN3)CC2)c(Cl)c1 [Example A-1, (2S)-2-benzenesulfonylamino-3-[3-chloro-4-[4-(1,4,5,6-tetrahydropyrimidin-2-yl)piperazin-1-yl]benzoylamino]propanoic acid] | ≥ 9.70 | – | –
– | – | O=C(NC[C@H](NS(=O)(=O)c1ccccc1)C(=O)O)c1ccc(N2CCC(NC3=NCCCN3)CC2)c(F)c1 [Example A-2, (2S)-2-benzenesulfonylamino-3-[3-fluoro-4-[[4-(1,4,5,6-tetrahydropyrimidin-2-yl)amino]-piperidin-1-yl]benzoylamino]propanoic acid] | – | ≥ 9.00 | ≥ 9.00
